{"source": "patent US11492385B2", "about": "“Long-acting co-agonists of the glucagon and GLP-1 receptors” (Merck Sharp & Dohme Corp., priority 2015, dated 2022)", "key": {"human GLP1R": {"target": "T1, human GLP1R (Homo sapiens, UniProt P43220)", "T1 construct": "expressed in transfected cells; kept under Blasticidin and Hygromycin selection", "T1 sequence (P43220 24-463)": "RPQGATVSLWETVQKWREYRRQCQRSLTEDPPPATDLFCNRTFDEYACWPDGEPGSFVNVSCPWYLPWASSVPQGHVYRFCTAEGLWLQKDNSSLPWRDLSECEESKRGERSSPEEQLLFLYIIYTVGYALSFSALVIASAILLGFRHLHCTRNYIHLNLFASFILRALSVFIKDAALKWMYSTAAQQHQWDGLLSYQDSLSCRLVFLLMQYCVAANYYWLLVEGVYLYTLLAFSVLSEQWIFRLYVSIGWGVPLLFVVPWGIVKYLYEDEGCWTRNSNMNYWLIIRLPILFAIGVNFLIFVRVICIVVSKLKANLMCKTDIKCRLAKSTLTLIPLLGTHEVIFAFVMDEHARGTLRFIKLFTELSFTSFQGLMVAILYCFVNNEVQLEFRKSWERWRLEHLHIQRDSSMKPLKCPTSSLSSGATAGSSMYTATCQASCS", "assay": "cAMP activity assay, cells expressing human GLP1R", "assay_type": "cell-based", "conditions": "cAMP production, assay buffer with or without 20% human serum (not stated which)", "summary_of_the_method": "(§1)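 cAMP production in human GLP1R- or GCGR-expressing cells was read by luminescence after overnight dark incubation at room temperature. Peptides were given as 10-point DMSO dilution series, with native GLP-1 and glucagon as references. Four-parameter logistic fitting gave EC50.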"}, "human GCGR": {"target": "T2, human GCGR (Homo sapiens, UniProt P47871)", "T2 construct": "expressed in transfected cells; kept under Blasticidin and Hygromycin selection", "T2 sequence (P47871 26-477)": "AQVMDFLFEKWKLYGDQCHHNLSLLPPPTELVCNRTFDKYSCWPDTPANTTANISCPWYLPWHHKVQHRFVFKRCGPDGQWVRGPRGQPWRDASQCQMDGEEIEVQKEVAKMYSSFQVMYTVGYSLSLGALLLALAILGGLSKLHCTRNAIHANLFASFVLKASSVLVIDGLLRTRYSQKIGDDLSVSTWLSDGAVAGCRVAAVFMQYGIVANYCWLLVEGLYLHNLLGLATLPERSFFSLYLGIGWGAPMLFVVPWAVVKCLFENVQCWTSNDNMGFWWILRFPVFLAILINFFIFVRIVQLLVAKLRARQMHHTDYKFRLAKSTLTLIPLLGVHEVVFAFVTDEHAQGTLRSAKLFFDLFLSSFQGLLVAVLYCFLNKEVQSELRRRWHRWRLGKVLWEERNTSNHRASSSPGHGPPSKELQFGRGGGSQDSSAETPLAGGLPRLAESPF", "assay": "cAMP activity assay, cells expressing human GCGR", "assay_type": "cell-based", "conditions": "for EC50: cAMP production, cells expressing human GCGR, assay buffer with or without 20% human serum (not stated which), read-out: GCGR EC50 human; for hGCGR/hGLP1R (hTone): ratio of human GCGR EC50 to human GLP1R EC50", "summary_of_the_method": "as §1"}}, "note": "Starred links: 1 amine or outer side, 2 acyl side, 3 side chain; linkers in the order of their positions; H or OH if unused. Non-standard residues stand in square brackets, D forms with d. Residues, ends and D or L forms follow the SMILES beside them. Groups on a side chain read outwards from the residue. *: point of attachment. Phe(4-CH2NH2) = NCc1ccc(C[C@H](N)C(=O)O)cc1; C18 diacid = O=C(O)CCCCCCCCCCCCCCCCC(=O)*; C16 diacid = O=C(O)CCCCCCCCCCCCCCC(=O)*; γGlu = O=C(O)[C@H](CCC(=O)[*:2])N[*:1]; Met(O2) = CS(=O)(=O)CC[C@H](N)C(=O)O; AEEA = NCCOCCOCC(=O)O; Aib = CC(C)(N)C(=O)O", "data": [{"compound": "CC(C)C[C@H](NC(=O)[C@H](CC(C)C)NC(=O)[C@H](Cc1c[nH]c2ccccc12)NC(=O)[C@H](CCC(N)=O)NC(=O)[C@@H](NC(=O)[C@H](Cc1ccccc1)NC(=O)[C@H](CCCCNC(=O)COCCOCCNC(=O)COCCOCCNC(=O)CC[C@H](NC(=O)CCCCCCCCCCCCCCC(=O)O)C(=O)O)NC(=O)[C@H](CCC(N)=O)NC(=O)[C@H](C)NC(=O)[C@H](C)NC(=O)[C@H](CCCNC(=N)N)NC(=O)C(C)(C)NC(=O)[C@H](CC(=O)O)NC(=O)[C@H](CC(C)C)NC(=O)[C@H](Cc1ccc(O)cc1)NC(=O)[C@H](CCCCN)NC(=O)[C@H](CO)NC(=O)[C@H](Cc1ccc(O)cc1)NC(=O)[C@H](CC(=O)O)NC(=O)[C@H](CO)NC(=O)[C@@H](NC(=O)[C@H](Cc1ccccc1)NC(=O)[C@@H](NC(=O)CNC(=O)[C@H](CCC(N)=O)NC(=O)[C@@H](CO)NC(=O)[C@@H](N)Cc1c[nH]cn1)[C@@H](C)O)[C@@H](C)O)C(C)C)C(=O)N[C@@H](C)C(=O)N[C@H](C(=O)N[C@@H](CCCCNC(=O)CC[C@H](N)C(=O)O)C(N)=O)[C@@H](C)O", "note": "[compound 1] (H-H[dS]QGTFTSDYSKYLD[Aib]RAAQK([AEEA-AEEA-γGlu-C16 diacid])FVQWLLATK(γGlu)-NH2)", "values": [{"measurement": "EC50", "setting": "human GLP1R", "value": 1.89, "unit": "nM"}, {"measurement": "EC50", "setting": "human GCGR", "value": 0.16, "unit": "nM"}, {"measurement": "hGCGR/hGLP1R (hTone)", "setting": "human GCGR", "value": 0.09}]}, {"compound": "CC(C)C[C@H](NC(=O)[C@H](Cc1ccc(O)cc1)NC(=O)[C@H](CCCCN)NC(=O)[C@H](CO)NC(=O)[C@H](Cc1ccc(CNC(=O)COCCOCCNC(=O)COCCOCCNC(=O)CC[C@H](NC(=O)CCCCCCCCCCCCCCCCC(=O)O)C(=O)O)cc1)NC(=O)[C@H](CC(=O)O)NC(=O)[C@H](CO)NC(=O)[C@@H](NC(=O)[C@H](Cc1ccccc1)NC(=O)[C@@H](NC(=O)CNC(=O)[C@H](CCC(N)=O)NC(=O)C(C)(C)NC(=O)[C@@H](N)Cc1c[nH]cn1)[C@@H](C)O)[C@@H](C)O)C(=O)N[C@@H](CC(=O)O)C(=O)N[C@@H](C)C(=O)N[C@@H](CCCNC(=N)N)C(=O)N[C@@H](C)C(=O)N[C@@H](C)C(=O)N[C@@H](CCC(N)=O)C(=O)N[C@@H](CC(=O)O)C(=O)N[C@@H](Cc1ccccc1)C(=O)N[C@H](C(=O)N[C@@H](CCC(N)=O)C(=O)N[C@@H](Cc1c[nH]c2ccccc12)C(=O)N[C@@H](CC(C)C)C(=O)N[C@@H](CCS(C)(=O)=O)C(=O)N[C@@H](CC(=O)O)C(=O)N[C@H](C(N)=O)[C@@H](C)O)C(C)C", "note": "[compound 28] (H-H[Aib]QGTFTSD[Phe(4-CH2NH2)]([AEEA-AEEA-γGlu-C18 diacid])SKYLDARAAQDFVQWL[Met(O2)]DT-NH2)", "values": [{"measurement": "EC50", "setting": "human GLP1R", "value": 0.14, "unit": "nM"}, {"measurement": "EC50", "setting": "human GCGR", "value": 0.43, "unit": "nM"}, {"measurement": "hGCGR/hGLP1R (hTone)", "setting": "human GCGR", "value": 3.11}]}, {"compound": "CC(C)C[C@H](NC(=O)[C@H](Cc1ccc(O)cc1)NC(=O)[C@H](CCCCN)NC(=O)[C@H](CO)NC(=O)[C@H](Cc1ccc(O)cc1)NC(=O)[C@H](CC(=O)O)NC(=O)[C@H](CO)NC(=O)[C@@H](NC(=O)[C@H](Cc1ccccc1)NC(=O)[C@@H](NC(=O)CNC(=O)[C@H](CCC(N)=O)NC(=O)[C@@H](CO)NC(=O)[C@@H](N)Cc1c[nH]cn1)[C@@H](C)O)[C@@H](C)O)C(=O)N[C@@H](CC(=O)O)C(=O)N[C@@H](C)C(=O)N[C@@H](CCCNC(=N)N)C(=O)N[C@@H](C)C(=O)N[C@@H](C)C(=O)N[C@@H](CCC(N)=O)C(=O)N[C@@H](CCCCNC(=O)COCCOCCNC(=O)COCCOCCNC(=O)CC[C@H](NC(=O)CCCCCCCCCCCCCCC(=O)O)C(=O)O)C(=O)N[C@@H](Cc1ccccc1)C(=O)N[C@H](C(=O)N[C@@H](CCC(N)=O)C(=O)N[C@@H](Cc1c[nH]c2ccccc12)C(=O)N[C@@H](CC(C)C)C(=O)N[C@@H](CCS(C)(=O)=O)C(=O)N[C@@H](CC(=O)O)C(=O)N[C@H](C(N)=O)[C@@H](C)O)C(C)C", "note": "[compound 15] (H-H[dS]QGTFTSDYSKYLDARAAQK([AEEA-AEEA-γGlu-C16 diacid])FVQWL[Met(O2)]DT-NH2)", "values": [{"measurement": "EC50", "setting": "human GLP1R", "value": 0.22, "unit": "nM"}, {"measurement": "EC50", "setting": "human GCGR", "value": 0.01, "unit": "nM"}, {"measurement": "hGCGR/hGLP1R (hTone)", "setting": "human GCGR", "value": 0.07}]}]}
